Results: ChEMBL document CHEMBL1136043, “Synthesis of (+)-Lasonolide A: (-)-lasonolide A is the biologically active enantiomer” (2002)

Experiments:
Type in all cases: functional
NCI-H460 = experiment: Concentration required for growth inhibition of human lung carcinoma cell line NCI-H460
HCT-116 = experiment: Concentration required for growth inhibition human of human colon cancer cell line HCT116
A549 = experiment: Concentration required for growth inhibition of human lung carcinoma cell line A549

SMILES	GI50 (NCI-H460) [nM]	GI50 (HCT-116) [nM]	GI50 (A549) [nM]
C=C(CCC(C)C)COC(=O)[C@@H](O)C/C=C\C[C@H]1O[C@H]2/C=C/C/C=C/C(C)=C\[C@@H]3O[C@H](C/C=C/C=C/C(=O)O[C@@H](C2)[C@]1(C)CO)C[C@@H](O)[C@@H]3C	3000	2000	6000
C=C(CCC(C)C)COC(=O)[C@H](O)C/C=C/C[C@@H]1O[C@@H]2/C=C/C/C=C/C(C)=C\[C@H]3O[C@@H](C/C=C/C=C/C(=O)O[C@H](C2)[C@@]1(C)CO)C[C@H](O)[C@H]3C	40	20	2000
C=C(CCC(C)C)COC(=O)[C@@H](O)C/C=C\C[C@@H]1O[C@@H]2/C=C\C/C=C/C(C)=C\[C@H]3O[C@@H](C/C=C/C=C/C(=O)O[C@H](C2)[C@@]1(C)CO)C[C@H](O)[C@H]3C	5000	5000	> 10000
C=C(CCC(C)C)COC(=O)[C@@H](O)C/C=C\C[C@@H]1O[C@@H]2/C=C/C/C=C/C(C)=C\[C@H]3O[C@@H](C/C=C/C=C/C(=O)O[C@H](C2)[C@@]1(C)CO)C[C@H](O)[C@H]3C	9	< 3	50
C=C(CCC(C)C)COC(=O)[C@@H](O)C/C=C/C[C@@H]1O[C@@H]2/C=C/C/C=C/C(C)=C\[C@H]3O[C@@H](C/C=C/C=C/C(=O)O[C@H](C2)[C@@]1(C)CO)C[C@H](O)[C@H]3C	100	40	3200
C=C(CCC(C)C)COC(=O)[C@H](O)C/C=C\C[C@@H]1O[C@@H]2/C=C/C/C=C/C(C)=C\[C@H]3O[C@@H](C/C=C/C=C/C(=O)O[C@H](C2)[C@@]1(C)CO)C[C@H](O)[C@H]3C [LASONOLIDE A]	< 3	< 3	20
